Patent publication US6953789B2, “Thiol compounds, their production and use” (Takeda Chemical Industries, Ltd., priority 1998, dated 2005)

target: T1, recombinant human MMP-13 (Homo sapiens, UniProt P45452); assay: Assay of MMP-13 inhibiting activity (fluorogenic peptide substrate); type: biochemical; details: Table 1; 37° C., 2 hours
T1 construct: made in house; host or cells: baculovirus (pBlueBac4 / Bac-N-Blue; virus made in Sf9), expressed in High-Five insect cells; culture supernatant used
Text: Based on the sequence described in the literature by Freije, J. M. et al (Journal of Biological Chemistry, 269: 16766-16773, 1994) and using a PCR method known per se, a human MMP-13 cDNA was obtained.
A pBlueBac4 (Invitrogen) and a Baculovirus vector Bac-N-Blue (Invitrogen) to each of which the human MMP-13 cDNA obtained above was integrated were co-transfected to an Sf9 cell to obtain a MMP-13-expressing recombinant virus.
The recombinant virus thus obtained was infected to a High-Five cell (Invitrogen), and the culture supernatant after three days was employed as an enzyme solution. Experiment 2 Assay of MMP-13 inhibiting activity
75 μl of a sample containing the recombinant human MMP-13, 200 mM sodium chloride, 20 mM calcium chloride, 0.1% Brij 35, 1 mM 2-mercaptoethanol, 200 mM tris-HCl buffer solution (pH7.5) and a test substance at various concentrations was treated with 25 μl of 40 μM MOCAc-Pro-Leu-Gly-Leu-A2pr(DNP)-Ala-Arg-NH2 (PEPTIDE KENKYUSHO) to initiate a reaction and kept at 37° C. for 2 hours, and then 100 μl of 500 mM sodium acetate-HCl buffer solution (pH3.0) was added to terminate the reaction.
The level of liberated MOCAc-Pro-Leu-Gly was determined using a fluorophotometer (MTP-32/F2: CORONA DENKI) at the excitation wavelength of 330 nm and the fluorescent wavelength of 405 nm. The fluorescent level of the reaction in the absence of a test substance was regarded as 100%, and the concentration of each test substance required for achieving 50% inhibition was indicated as IC50.

Compound | IC50 [nM]
CC(=O)SC1CC(=O)N(Cc2ccc(Oc3ccccc3)cc2)C1=O (centres unmarked) [Example 5, 3-Acetylthio-1-(4-phenoxybenzyl)pyrrolidine-2,5-dione] | 30

same assay, conditions: Table 3; 37° C., 2 hours

Compound | IC50 [nM]
C/C(=C(\CCO)SS[C@@H]1CC(=O)N(Cc2ccc(Oc3ccccc3)cc2)C1)N(C=O)Cc1cnc(C)nc1N [Example 88, (4-Amino-2-methyl-5-pyrimidinyl)methyl((Z)-4-hydroxy-1-methyl-2-{[(3R)-5-oxo-1-(4-phenoxybenzyl)pyrrolidinyl]disulfanyl}-1-butenyl)formamide] | 670
CCNC(=S)S[C@@H]1CC(=O)N(Cc2ccc(Oc3ccccc3)cc2)C1 [Example 77] | 1.6
NC(=O)S[C@@H]1CC(=O)N(Cc2ccc(Oc3ccccc3)cc2)C1 [Example 49, S-[(3R)-5-oxo-1-(4-phenoxybenzyl)pyrrolidinyl]thiocarbamate] | 0.65
CC(C)(C)C(=O)OCSC1CC(=O)N(Cc2ccc(Oc3ccccc3)cc2)C1 (centres unmarked) [Example 18, 4-Pivaloyloxymethylthio-1-(4-phenoxybenzyl)pyrrolidin-2-one] | 30
CCOC(=O)CC(=O)S[C@@H]1CC(=O)N(Cc2ccc(Oc3ccccc3)cc2)C1 [Example 71, Ethyl 3-oxo-3-{[(3R)-5-oxo-1-(4-phenoxybenzyl)pyrrolidinyl]sulfanyl}propanoate] | 0.89
O=C(NCS[C@@H]1CC(=O)N(Cc2ccc(Oc3ccccc3)cc2)C1)c1ccccc1 [Example 102, N-({[(3R)-5-oxo-1-(4-phenoxybenzyl)pyrrolidinyl]sulfanyl}methyl)benzamide] | 100
CCCCC(=O)SC1CC(=O)N(Cc2ccc(Oc3ccccc3)cc2)C1 (stereo not drawn) [Example 66, S-[5-oxo-1-(4-phenoxybenzyl)-3-pyrrolidinyl]pentanethioate] | 1
CCOC(=O)NCS[C@@H]1CC(=O)N(Cc2ccc(Oc3ccccc3)cc2)C1 [Example 103, Ethyl {[(3R)-5-oxo-1-(4-phenoxybenzyl)pyrrolidinyl]sulfanyl}methylcarbamate] | 300
O=C(O)CCC(=O)S[C@@H]1CC(=O)N(Cc2ccc(Oc3ccccc3)cc2)C1 [Example 75, 4-Oxo-4-{[(3R)-5-oxo-1-(4-phenoxybenzyl)pyrrolidinyl]sulfanyl}butanoic acid] | 8
CCOC(=O)CCNC(=O)S[C@@H]1CC(=O)N(Cc2ccc(Oc3ccccc3)cc2)C1 [Example 60, Ethyl [({[(3R)-5-oxo-1-(4-phenoxybenzyl)pyrrolidinyl]sulfanyl}carbonyl)amino]propanoate] | 0.9
O=C(O)CSS[C@@H]1CC(=O)N(Cc2ccc(Oc3ccccc3)cc2)C1 [Example 83] | 400

same assay, conditions: Table 4; 37° C., 2 hours

Compound | IC50 [nM]
CC(=O)SC1CC(=O)N(Cc2cccc(Oc3ccccc3)c2)C1 (centres unmarked) [Example 40, 4-Acetylthio-1-(3-phenoxybenzyl)pyrrolidin-2-one] | 1000

same assay, conditions: Table 5; 37° C., 2 hours

Compound | IC50 [nM]
CC(C)C[C@H]1[C@H](S)CC(=O)N1Cc1ccc(Oc2ccccc2)cc1 (relative stereo) [Example 180, trans-5-Isobutyl-4-mercapto-1-(4-phenoxybenzyl)pyrrolidin-2-one] | 20
CC(=O)S[C@@H]1CC(=O)N(Cc2ccc(Oc3ccccc3)cc2)[C@H]1C(=O)NCCO (relative stereo) [Example 189, trans-4-Acetylthio-5-(2-hydroxyethyl)aminocarbonyl-1-(4-phenoxybenzyl)pyrrolidin-2-one] | 89

same assay, conditions: Table 6; 37° C., 2 hours

Compound | IC50 [nM]
CC1C(=O)N(Cc2ccc(Oc3ccccc3)cc2)CC1S (stereo not drawn) [Example 195, trans-4-Mercapto-3-methyl-1-(4-phenoxybenzyl)pyrrolidin-2-one] | 6

same assay, conditions: Table 7; 37° C., 2 hours

Compound | IC50 [nM]
O=C1CC(CSSCC2CC(=O)N(Cc3ccc(Oc4ccccc4)cc3)C2=O)C(=O)N1Cc1ccc(Oc2ccccc2)cc1 (centres unmarked) [Example 13, 3,3′-[Dithiobis(methylene)]bis[1-(4-phenoxybenzyl)pyrrolidine-2,5-dione]] | > 10000

same assay, conditions: Table 8; 37° C., 2 hours

Compound | IC50 [nM]
O=C1C(S)CCN1Cc1ccc(Oc2ccccc2)cc1 (centres unmarked) [Example 29, 3-Mercapto-1-(4-phenoxybenzyl)pyrrolidin-2-one] | 2000
CC(=O)SC1CCN(Cc2ccc(Oc3ccccc3)cc2)C1=O (centres unmarked) [Example 27, 3-Acetylthio-1-(4-phenoxybenzyl)pyrrolidin-2-one] | > 10000

same assay, conditions: Table 9; 37° C., 2 hours

Compound | IC50 [nM]
CCOC(=O)c1ccc(Oc2ccc(CN3CC(S)CC3=O)cc2)cc1 (centres unmarked) [Example 132, 4-Mercapto-1-[4-(4′-ethoxycarbonylphenoxy)benzyl]pyrrolidin-2-one] | 3.3
CC(=O)S[C@@H]1CC(=O)N(Cc2ccc(Oc3ccc(C)cc3)cc2)C1 [Example 123, (R)-4-Acethylthio-1-[4-(4′-methylphenoxy)benzyl]pyrrolidin-2-one] | 8.9
CC(=O)SC1CC(=O)N(Cc2ccc(Oc3ccc(C(N)=O)cc3)cc2)C1 (centres unmarked) [Example 134, 4-Acetylthio-1-[4-(4′-aminocarbonylphenoxy)benzyl]pyrrolidin-2-one] | 29
CC(=O)SC1CC(=O)N(Cc2ccc(Oc3ccc([N+](=O)[O-])cc3)cc2)C1 (centres unmarked) [Example 142, 4-Acetylthio-1-[4-(4′-nitrophenoxy)benzyl]pyrrolidin-2-one] | 53
CC(=O)SC1CC(=O)N(Cc2ccc(Oc3ccc(C(=O)O)cc3)cc2)C1 (centres unmarked) [Example 133, 4-Acetylthio-1-[4-(4′-carboxyphenoxy)benzyl]pyrrolidin-2-one] | > 10000
CC(=O)S[C@@H]1CC(=O)N(Cc2ccc(Oc3ccc(F)cc3)cc2)C1 [Example 117, (R)-4-Acethylthio-1-[4-(4′-fluorophenoxy)benzyl]pyrrolidin-2-one] | 7
O=C1CC(S)CN1Cc1ccc(Oc2ccc(F)cc2)cc1 (centres unmarked) [Example 31, 4-Mercapto-1-(4-(4′-fluorophenoxy)benzyl)pyrrolidin-2-one] | 3
O=C1CC(S)CN1Cc1ccc(Oc2ccc(F)c(F)c2)cc1 (centres unmarked) [Example 122, 4-Mercapto-1-[4-(3′,4′-difluorophenoxy)benzyl]pyrrolidin-2-one] | 20
CC(=O)SC1CC(=O)N(Cc2ccc(Oc3ccc(Cl)cc3)cc2)C1 (centres unmarked) [Example 32, 4-Acetylthio-1-(4-(4′-chlorophenoxy)benzyl)pyrrolidin-2-one] | 8
Cc1ccc(Oc2ccc(CN3CC(S)CC3=O)cc2)cc1 (centres unmarked) [Example 128, 4-Mercapto-1-[4-(4′-methylphenoxy)benzyl]pyrrolidin-2-one] | 7
CC(=O)SC1CC(=O)N(Cc2ccc(Oc3ccc(C(F)(F)F)cc3)cc2)C1 (centres unmarked) [Example 129, 4-Acetylthio-1-[4-(4′-(trifluoromethyl)phenoxy)benzyl]pyrrolidin-2-one] | 30
CC(=O)SC1CC(=O)N(Cc2ccc(Oc3ccccc3)cc2[N+](=O)[O-])C1 (centres unmarked) [Example 150, 4-Acetylthio-1-(2-nitro-4-phenoxybenzyl)pyrrolidin-2-one] | 5500
CC(=O)S[C@@H]1CC(=O)N(Cc2ccc(Oc3ccc(C)cc3)cc2)C1 [Example 127, (R)-4-Acetylthio-1-[4-(4′-methylphenoxy)benzyl]pyrrolidin-2-one] | 10
COc1ccc(Oc2ccc(CN3CC(S)CC3=O)cc2)cc1 (centres unmarked) [Example 37, 4-Mercapto-1-(4-(4′-methoxyphenoxy)benzyl)pyrrolidin-2-one] | 5
O=C1CC(S)CN1Cc1ccc(Oc2ccc(OC(F)(F)F)cc2)cc1 (centres unmarked) [Example 141, 4-Mercapto-1-{4-[4′-(trifluoromethoxy)phenoxy]benzyl}pyrrolidin-2-one] | 10
CS(=O)(=O)Nc1ccc(Oc2ccc(CN3CC(S)CC3=O)cc2)cc1 (centres unmarked) [Example 147, 4-Mercapto-1-[4-(4′-methylsulfonylaminophenoxy)benzyl]pyrrolidin-2-one] | 1.2

same assay, conditions: Table 10; 37° C., 2 hours

Compound | IC50 [nM]
O=C1CC(S)CN1Cc1ccc(COc2ccccc2)cc1 (centres unmarked) [Example 164, 4-Mercapto-1-(4-phenoxymethylbenzyl)pyrrolidin-2-one] | 80

same assay, conditions: Table 11; 37° C., 2 hours

Compound | IC50 [nM]
O=C1CC(S)CN1Cc1ccc(Oc2ccsc2)cc1 (centres unmarked) [Example 158, 4-Mercapto-1-[4-(3′-thienyloxy)benzyl]pyrrolidin-2-one] | 4
O=C1CC(S)CN1Cc1ccc2oc3ccccc3c2c1 (centres unmarked) [Example 202, 4-Mercapto-1-(2-dibenzofuranmethyl)pyrrolidin-2-one] | 100
CC(=O)SC1CC(=O)N(Cc2ccc(N(c3ccccc3)S(=O)(=O)c3ccc(C)cc3)cc2)C1 (centres unmarked) [Example 203, 4-Acetylthio-1-[4-(N-phenyl-N-p-toluenesulfonyl)aminobenzyl]pyrrolidin-2-one] | > 10000

same assay, conditions: Table 12; 37° C., 2 hours

Compound | IC50 [nM]
O=C1CC(S)CCN1Cc1ccc(Oc2ccccc2)cc1 (centres unmarked) [Example 111, 1-(4-Phenoxybenzyl)-4-sulfanyl-2-piperidinone] | 17

same assay, conditions: Table 13; 37° C., 2 hours

Compound | IC50 [nM]
CC(=O)SC1CCC(=O)N(Cc2ccc(Oc3ccc(Br)cc3)cc2)C1=O (centres unmarked) [Example 43, 3-Acetylthio-1-[4-(4-bromophenoxy)benzyl]piperidine-2,6-dione] | 20
